Key:
Test in all cases: relative viability (nuclei count vs DMSO), 5 days (fraction); higher = more cells survive
[1] = compound: CC[C@H](CO)Nc1nc(NCc2ccccc2)c2ncn(C(C)C)c2n1 [Seliciclib]
Method in brief: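 Nuclei counted with MetaXpress define viability as the ratio of treated to vehicle wells, given as a median across plates. The lung cancer cell lines were in 1536-well plates, pinned with five √10-spaced library-drug doses and imaged at 4× after 5 days and Hoechst staining. Plates passed with control CV below 25% and at least one doubling.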

[2] = compound: CC[C@H](CO)Nc1nc(NCc2ccccc2)c2ncn(C(C)C)c2n1 [Seliciclib] + CC(=O)c1c(C)c2cnc(Nc3ccc(N4CCNCC4)cn3)nc2n(C2CCCC2)c1=O [Palbociclib] (partner 0.5 µM)
Method in brief: (§1)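 A single step with final 0.05% Triton X-100, 1% formaldehyde and 1 ug/ml Hoechst fixed the cells and stained nuclei 5 days after treatment. Lung cancer cell lines in 1536-well plates had been treated by pin tool the day after seeding with one drug alone or a fixed anchor-drug dose plus five library-drug doses (not always all listed) in √10 steps, and nuclei were counted on 4× images. Relative viability is the ratio of nuclei in treated wells to nuclei in vehicle wells, taken as the median of duplicate plates.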

[3] = compound: CC[C@H](CO)Nc1nc(NCc2ccccc2)c2ncn(C(C)C)c2n1 [Seliciclib] + COc1cc2c(Oc3ccc(NC(=O)C4(C(=O)Nc5ccc(F)cc5)CC4)cc3F)ccnc2cc1OCCCN1CCOCC1 [Foretinib] (partner 0.25 µM)
Method in brief: as §1

[4] = compound: CC[C@H](CO)Nc1nc(NCc2ccccc2)c2ncn(C(C)C)c2n1 [Seliciclib] + COc1cccc2cc(-c3nc([C@H]4CC[C@H](C(=O)O)CC4)n4ncnc(N)c34)[nH]c12 [OSI-027] (partner 0.5 µM)
Method in brief: as §1

Row | Cell Line | relative viability ([1]; 0.08 µM) | relative viability ([1]; 0.253 µM) | relative viability ([1]; 0.8 µM) | relative viability ([1]; 2.53 µM) | relative viability ([1]; 8 µM) | relative viability ([2]; first compound 0.08 µM) | relative viability ([2]; first compound 0.253 µM) | relative viability ([2]; first compound 0.8 µM) | relative viability ([2]; first compound 2.53 µM) | relative viability ([2]; first compound 8 µM) | relative viability ([3]; first compound 0.08 µM) | relative viability ([3]; first compound 0.253 µM) | relative viability ([3]; first compound 0.8 µM) | relative viability ([3]; first compound 2.53 µM) | relative viability ([3]; first compound 8 µM) | relative viability ([4]; first compound 0.08 µM) | relative viability ([4]; first compound 0.253 µM) | relative viability ([4]; first compound 0.8 µM) | relative viability ([4]; first compound 2.53 µM) | relative viability ([4]; first compound 8 µM)
1 | HCC-78 | 1 | 1.05 | 0.91 | 0.703 | 0.733 | 0.504 | 0.438 | 0.514 | 0.395 | 0.382 | 0.535 | 0.574 | 0.445 | 0.41 | 0.457 | 0.411 | 0.426 | 0.358 | 0.34 | 0.326
2 | HCC-366 | 1.01 | 1.06 | 0.998 | 1.03 | 0.938 | 0.35 | 0.272 | 0.345 | 0.328 | 0.166 | 0.917 | 0.97 | 0.786 | 0.93 | 0.762 | 0.978 | 0.43 | 0.825 | 0.513 | 0.625
3 | HCC-827 | 1.04 | 1.07 | 1.01 | 1.05 | 0.907 | 0.486 | 0.493 | 0.456 | 0.39 | 0.231 | 1.01 | 1.04 | 0.968 | 0.972 | 0.925 | 0.844 | 0.612 | 0.757 | 0.801 | 0.794
4 | HOP-62 | 1.04 | 1.1 | 1.08 | 1 | 0.94 | 0.463 | 0.398 | 0.397 | 0.366 | 0.308 | 1.17 | 1.18 | 1.1 | 1.17 | 0.993 | 0.891 | 0.705 | 0.952 | 0.57 | 0.777
5 | IA-LM | 1.01 | 1.1 | 0.919 | 1 | 0.819 | – | – | – | – | – | 1.18 | 1.48 | 1.04 | 1.1 | 0.925 | – | – | – | – | –
6 | LC-2-ad | 1 | 1.14 | 0.973 | 0.846 | 0.888 | 0.49 | 0.524 | 0.494 | 0.466 | 0.371 | 0.949 | 0.966 | 0.865 | 0.747 | 0.852 | 0.902 | 0.901 | 0.827 | 0.453 | 0.799
7 | LCLC-97TM1 | 0.984 | 1 | 0.911 | 0.473 | 0.651 | 0.219 | 0.242 | 0.186 | 0.184 | 0.108 | 0.936 | 0.952 | 0.961 | 0.793 | 0.72 | 0.442 | 0.424 | 0.714 | 0.108 | 0.182
8 | LCLC-103H | 1 | 0.934 | 0.929 | 0.836 | 0.914 | 0.524 | 0.51 | 0.486 | 0.469 | 0.423 | 0.812 | 0.878 | 0.708 | 0.739 | 0.589 | 0.452 | 0.47 | 0.456 | 0.319 | 0.487
9 | LK-2 | 0.99 | 0.737 | 0.966 | 0.759 | 0.69 | 0.466 | 0.423 | 0.509 | 0.447 | 0.285 | 1.13 | 1.08 | 0.776 | 0.85 | 0.977 | 0.225 | 0.203 | 0.191 | 0.175 | 0.194
